Test results: the supplement of paper PMC10307832

Key:
Test in all cases: relative viability (nuclei count vs DMSO), 5 days (fraction); higher = more cells survive
[1] = test system: NCI-H2405
Procedure, shortened: (§1)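 Lung cancer cell lines were seeded in 1536-well plates and dosed by pin tool the next day, with either a single drug or a fixed anchor-drug dose combined with five library-drug doses (not always all listed) spaced in √10 steps. Five days later, one step fixed the cells and stained their nuclei (final 0.05% Triton X-100, 1% formaldehyde, 1 ug/ml Hoechst), and nuclei were counted on 4× images. Relative viability is the nuclei count in treated wells divided by the count in vehicle wells, and each value is the median of duplicate plates.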

[2] = test system: EMC-BAC-2
Procedure, shortened: as §1

[3] = test system: NCI-H2085
Procedure, shortened: as §1

[4] = test system: NCI-H838
Procedure, shortened: as §1

[5] = test system: NCI-H1793
Procedure, shortened: as §1

[6] = test system: NCI-H1395
Procedure, shortened: as §1

[7] = test system: LU99A
Procedure, shortened: as §1

[8] = test system: EPLC-272H
Procedure, shortened: as §1

[9] = test system: NCI-H1651
Procedure, shortened: as §1

[10] = test system: NCI-H1944
Procedure, shortened: as §1

[11] = test system: NCI-H520
Procedure, shortened: as §1

[12] = test system: HCC-827
Procedure, shortened: as §1

[13] = test system: NCI-H2087
Procedure, shortened: as §1

[14] = test system: NCI-H1563
Procedure, shortened: as §1

[15] = test system: SK-MES-1
Procedure, shortened: as §1

[16] = test system: NCI-H650
Procedure, shortened: as §1

[17] = test system: NCI-H2023
Procedure, shortened: as §1

[18] = test system: ChaGo-K-1
Procedure, shortened: as §1

[19] = test system: LCLC-103H
Procedure, shortened: as §1

[20] = test system: COR-L23
Procedure, shortened: as §1

[21] = test system: H3255
Procedure, shortened: as §1

`COc1nc(C)cnc1NS(=O)(=O)c1cccnc1-c1ccc(-c2nnco2)cc1` [Zibotentan] + COc1cc2c(Oc3ccc(NC(=O)C4(C(=O)Nc5ccc(F)cc5)CC4)cc3F)ccnc2cc1OCCCN1CCOCC1 [Foretinib] (partner 0.25 µM) was tested. Which relative viability ([1]; first compound 0.08 µM) did it give?
The relative viability was 1.1.

And the relative viability ([1]; first compound 0.253 µM)?
Its relative viability is 1.02.

And the relative viability ([1]; first compound 0.8 µM)?
The relative viability was 1.04.

And the relative viability ([1]; first compound 2.53 µM)?
The relative viability was 1.05.

What about the relative viability ([2]; first compound 0.08 µM) of the same compound?
The relative viability was 1.07.

What about the relative viability ([2]; first compound 0.8 µM) of the same compound?
Its relative viability is 1.05.

And the relative viability ([2]; first compound 2.53 µM)?
The relative viability was 1.05.

And the relative viability ([3]; first compound 0.08 µM)?
The relative viability was 0.97.

What about the relative viability ([3]; first compound 0.253 µM) of the same compound?
The relative viability was 1.05.

And the relative viability ([3]; first compound 0.8 µM)?
The relative viability was 0.928.

What about the relative viability ([3]; first compound 2.53 µM) of the same compound?
The relative viability was 1.18.

And the relative viability ([4]; first compound 0.08 µM)?
The relative viability was 0.992.

What about the relative viability ([4]; first compound 0.253 µM) of the same compound?
The relative viability was 0.934.

And the relative viability ([4]; first compound 0.8 µM)?
Its relative viability is 1.06.

What about the relative viability ([4]; first compound 2.53 µM) of the same compound?
Its relative viability is 1.08.

What about the relative viability ([5]; first compound 0.08 µM) of the same compound?
The relative viability was 0.993.

And the relative viability ([5]; first compound 0.253 µM)?
Its relative viability is 0.721.

And the relative viability ([5]; first compound 0.8 µM)?
The relative viability was 0.546.

And the relative viability ([5]; first compound 2.53 µM)?
The relative viability was 0.808.

And the relative viability ([6]; first compound 0.08 µM)?
Its relative viability is 1.02.

And the relative viability ([6]; first compound 0.253 µM)?
The relative viability was 1.07.

What about the relative viability ([6]; first compound 0.8 µM) of the same compound?
Its relative viability is 1.04.

And the relative viability ([6]; first compound 2.53 µM)?
Its relative viability is 0.941.

What about the relative viability ([7]; first compound 0.08 µM) of the same compound?
Its relative viability is 0.953.

And the relative viability ([7]; first compound 0.253 µM)?
The relative viability was 0.8.

What about the relative viability ([7]; first compound 0.8 µM) of the same compound?
Its relative viability is 0.888.

And the relative viability ([7]; first compound 2.53 µM)?
Its relative viability is 0.918.

What about the relative viability ([8]; first compound 0.08 µM) of the same compound?
Its relative viability is 0.696.

And the relative viability ([8]; first compound 0.253 µM)?
Its relative viability is 0.641.

And the relative viability ([8]; first compound 0.8 µM)?
Its relative viability is 0.901.

And the relative viability ([8]; first compound 2.53 µM)?
Its relative viability is 0.787.

What about the relative viability ([9]; first compound 0.08 µM) of the same compound?
Its relative viability is 0.815.

What about the relative viability ([9]; first compound 0.253 µM) of the same compound?
Its relative viability is 0.569.

And the relative viability ([9]; first compound 0.8 µM)?
Its relative viability is 0.488.

What about the relative viability ([9]; first compound 2.53 µM) of the same compound?
Its relative viability is 0.99.

And the relative viability ([10]; first compound 0.08 µM)?
The relative viability was 1.02.

And the relative viability ([10]; first compound 0.253 µM)?
Its relative viability is 0.806.

And the relative viability ([10]; first compound 0.8 µM)?
The relative viability was 0.898.

What about the relative viability ([10]; first compound 2.53 µM) of the same compound?
The relative viability was 0.908.

And the relative viability ([11]; first compound 0.08 µM)?
The relative viability was 0.811.

What about the relative viability ([11]; first compound 0.253 µM) of the same compound?
Its relative viability is 0.738.

What about the relative viability ([11]; first compound 0.8 µM) of the same compound?
Its relative viability is 0.586.

What about the relative viability ([11]; first compound 2.53 µM) of the same compound?
Its relative viability is 0.742.

And the relative viability ([12]; first compound 0.08 µM)?
The relative viability was 1.06.

And the relative viability ([12]; first compound 0.253 µM)?
The relative viability was 1.01.

And the relative viability ([12]; first compound 0.8 µM)?
Its relative viability is 1.11.

What about the relative viability ([12]; first compound 2.53 µM) of the same compound?
Its relative viability is 1.09.

What about the relative viability ([13]; first compound 0.08 µM) of the same compound?
Its relative viability is 1.22.

What about the relative viability ([13]; first compound 0.253 µM) of the same compound?
Its relative viability is 1.04.

What about the relative viability ([13]; first compound 0.8 µM) of the same compound?
The relative viability was 1.16.

And the relative viability ([13]; first compound 2.53 µM)?
The relative viability was 1.04.

And the relative viability ([14]; first compound 0.08 µM)?
Its relative viability is 0.985.

And the relative viability ([14]; first compound 0.8 µM)?
Its relative viability is 1.02.

What about the relative viability ([14]; first compound 2.53 µM) of the same compound?
The relative viability was 0.979.

What about the relative viability ([15]; first compound 0.08 µM) of the same compound?
The relative viability was 0.974.

What about the relative viability ([15]; first compound 0.253 µM) of the same compound?
Its relative viability is 0.886.

What about the relative viability ([15]; first compound 0.8 µM) of the same compound?
Its relative viability is 0.974.

And the relative viability ([15]; first compound 2.53 µM)?
The relative viability was 1.02.

And the relative viability ([16]; first compound 0.08 µM)?
Its relative viability is 1.1.

What about the relative viability ([16]; first compound 0.253 µM) of the same compound?
Its relative viability is 0.877.

And the relative viability ([16]; first compound 0.8 µM)?
Its relative viability is 1.07.

And the relative viability ([16]; first compound 2.53 µM)?
Its relative viability is 0.994.

And the relative viability ([17]; first compound 0.08 µM)?
Its relative viability is 0.942.

And the relative viability ([17]; first compound 0.253 µM)?
Its relative viability is 0.668.

What about the relative viability ([17]; first compound 0.8 µM) of the same compound?
Its relative viability is 0.932.

And the relative viability ([17]; first compound 2.53 µM)?
Its relative viability is 0.978.

And the relative viability ([18]; first compound 0.08 µM)?
Its relative viability is 0.941.

And the relative viability ([18]; first compound 0.253 µM)?
The relative viability was 0.926.

What about the relative viability ([18]; first compound 0.8 µM) of the same compound?
The relative viability was 0.977.

What about the relative viability ([18]; first compound 2.53 µM) of the same compound?
Its relative viability is 0.841.

What about the relative viability ([19]; first compound 0.08 µM) of the same compound?
The relative viability was 0.928.

What about the relative viability ([19]; first compound 0.253 µM) of the same compound?
Its relative viability is 0.886.

And the relative viability ([19]; first compound 0.8 µM)?
Its relative viability is 0.797.

And the relative viability ([19]; first compound 2.53 µM)?
Its relative viability is 0.838.

What about the relative viability ([20]; first compound 0.08 µM) of the same compound?
Its relative viability is 1.21.

And the relative viability ([20]; first compound 0.253 µM)?
The relative viability was 0.926.

What about the relative viability ([20]; first compound 0.8 µM) of the same compound?
The relative viability was 0.989.

And the relative viability ([20]; first compound 2.53 µM)?
The relative viability was 0.894.

What about the relative viability ([21]; first compound 0.08 µM) of the same compound?
Its relative viability is 0.966.

What about the relative viability ([21]; first compound 0.253 µM) of the same compound?
The relative viability was 0.802.

And the relative viability ([21]; first compound 0.8 µM)?
The relative viability was 0.945.

And the relative viability ([21]; first compound 2.53 µM)?
Its relative viability is 0.987.
